Assay results reported in PubChem BioAssay (NCI).
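Cells were grown in 96-well plates and exposed to each compound for 48 hours at five concentrations; endpoints were interpolated linearly between bracketing concentrations, or set to the highest concentration if not reached. At the GI50, growth is halved. TGI marks complete inhibition of growth.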

What was measured:
Test in all cases: DTP human tumour cell line panel, 48 h
LXFL 529 NSCLC = tested on: LXFL 529 NSCLC
SNB-19 CNS = tested on: SNB-19 CNS
HCT-15 colon = tested on: HCT-15 colon
OVCAR-5 ovarian = tested on: OVCAR-5 ovarian
KM20L2 colon = tested on: KM20L2 colon
SNB-78 CNS = tested on: SNB-78 CNS
CAKI-1 renal = tested on: CAKI-1 renal
UACC-257 melanoma = tested on: UACC-257 melanoma
DLD-1 colon = tested on: DLD-1 colon

For `CCOC(=O)/C(=C/c1ccc(C(=O)OC)cc1)N(CC)CC`, which TGI (LXFL 529 NSCLC) is on record?
Its TGI is > 100 µM.

What about the TGI (SNB-19 CNS) of the same compound?
The TGI was > 100 µM.

And the TGI (HCT-15 colon)?
Its TGI is > 100 µM.

What about the TGI (OVCAR-5 ovarian) of the same compound?
Its TGI is > 100 µM.

What about the TGI (KM20L2 colon) of the same compound?
The TGI was > 100 µM.

What about the TGI (SNB-78 CNS) of the same compound?
The TGI was 91.7 µM.

And the TGI (CAKI-1 renal)?
Its TGI is > 100 µM.

What about the TGI (UACC-257 melanoma) of the same compound?
The TGI was > 100 µM.

For `CCOP(=O)(OCC)C1CCCOC1=O` (stereo unspecified), which TGI (LXFL 529 NSCLC) is on record?
Its TGI is > 100 µM.

And the TGI (SNB-19 CNS)?
The TGI was > 100 µM.

And the TGI (HCT-15 colon)?
Its TGI is > 100 µM.

And the TGI (OVCAR-5 ovarian)?
The TGI was > 100 µM.

And the TGI (KM20L2 colon)?
Its TGI is > 100 µM.

And the TGI (SNB-78 CNS)?
Its TGI is > 100 µM.

What about the TGI (CAKI-1 renal) of the same compound?
Its TGI is > 100 µM.

And the TGI (UACC-257 melanoma)?
Its TGI is > 100 µM.

And the TGI (DLD-1 colon)?
Its TGI is > 100 µM.

`C[CH2][Ge]([CH2]C)([CH2]C)[O]C(=O)C(OC(C)=O)c1ccccc1` (stereo unspecified) was tested. Which GI50 (LXFL 529 NSCLC) did it give?
The GI50 was > 100 µM.

And the TGI (LXFL 529 NSCLC)?
The TGI was > 100 µM.

What about the GI50 (SNB-19 CNS) of the same compound?
The GI50 was > 100 µM.

And the TGI (SNB-19 CNS)?
The TGI was > 100 µM.

What about the GI50 (HCT-15 colon) of the same compound?
The GI50 was > 100 µM.

And the TGI (HCT-15 colon)?
Its TGI is > 100 µM.

What about the GI50 (OVCAR-5 ovarian) of the same compound?
Its GI50 is > 100 µM.

What about the TGI (OVCAR-5 ovarian) of the same compound?
Its TGI is > 100 µM.

And the GI50 (KM20L2 colon)?
The GI50 was > 100 µM.

What about the TGI (KM20L2 colon) of the same compound?
The TGI was > 100 µM.

And the GI50 (SNB-78 CNS)?
The GI50 was > 100 µM.

What about the TGI (SNB-78 CNS) of the same compound?
Its TGI is > 100 µM.

What about the GI50 (CAKI-1 renal) of the same compound?
Its GI50 is > 100 µM.

And the TGI (CAKI-1 renal)?
The TGI was > 100 µM.

What about the GI50 (UACC-257 melanoma) of the same compound?
The GI50 was > 100 µM.

And the TGI (UACC-257 melanoma)?
The TGI was > 100 µM.

And the GI50 (DLD-1 colon)?
Its GI50 is > 100 µM.

What about the TGI (DLD-1 colon) of the same compound?
The TGI was > 100 µM.

`CC(=O)c1c2c(cc3c1CC1(C3)Cc3cc4c(c(C(C)=O)c3C1)CCC4)CCC2` was tested. Which TGI (LXFL 529 NSCLC) did it give?
Its TGI is > 100 µM.

What about the TGI (SNB-19 CNS) of the same compound?
The TGI was > 100 µM.

What about the TGI (OVCAR-5 ovarian) of the same compound?
Its TGI is > 100 µM.

What about the TGI (SNB-78 CNS) of the same compound?
The TGI was > 100 µM.

What about the TGI (CAKI-1 renal) of the same compound?
The TGI was > 100 µM.

What about the TGI (UACC-257 melanoma) of the same compound?
Its TGI is > 100 µM.

What about the TGI (DLD-1 colon) of the same compound?
The TGI was > 100 µM.

`COC(=O)N/N=C(\C)c1c(O)cc(C)oc1=O` was tested. Which TGI (LXFL 529 NSCLC) did it give?
Its TGI is 45.5 µM.

And the TGI (SNB-19 CNS)?
Its TGI is > 100 µM.

What about the TGI (HCT-15 colon) of the same compound?
The TGI was > 100 µM.

What about the TGI (KM20L2 colon) of the same compound?
The TGI was > 100 µM.

What about the TGI (SNB-78 CNS) of the same compound?
The TGI was > 100 µM.

And the TGI (UACC-257 melanoma)?
The TGI was > 100 µM.

And the TGI (DLD-1 colon)?
The TGI was > 100 µM.

`Cc1cccc(C)c1NC(=O)C1=NC(=S)NC(c2ccccc2)C1c1nc2ccccc2s1` (stereo unspecified) was tested. Which TGI (LXFL 529 NSCLC) did it give?
The TGI was > 100 µM.

What about the TGI (SNB-19 CNS) of the same compound?
The TGI was > 100 µM.

What about the TGI (KM20L2 colon) of the same compound?
Its TGI is > 100 µM.

And the TGI (SNB-78 CNS)?
The TGI was > 100 µM.

What about the TGI (CAKI-1 renal) of the same compound?
The TGI was > 100 µM.

And the TGI (UACC-257 melanoma)?
The TGI was > 100 µM.

And the TGI (DLD-1 colon)?
The TGI was > 100 µM.

With `COC(=O)C1Cc2c(n(C)c3ccccc23)C(CCC(=O)O)N1Cc1ccccc1` (stereo unspecified) as the compound, how does the TGI (LXFL 529 NSCLC) read?
The TGI was > 100 µM.

What about the TGI (SNB-19 CNS) of the same compound?
The TGI was 97.3 µM.

What about the TGI (HCT-15 colon) of the same compound?
Its TGI is > 100 µM.

What about the TGI (OVCAR-5 ovarian) of the same compound?
Its TGI is > 100 µM.

What about the TGI (KM20L2 colon) of the same compound?
Its TGI is > 100 µM.

What about the TGI (SNB-78 CNS) of the same compound?
The TGI was > 100 µM.

What about the TGI (CAKI-1 renal) of the same compound?
Its TGI is > 100 µM.

And the TGI (UACC-257 melanoma)?
The TGI was > 100 µM.

What about the TGI (DLD-1 colon) of the same compound?
The TGI was > 100 µM.

How did the TGI (LXFL 529 NSCLC) turn out when `CN(c1ccc(C(=O)c2ccc(N(C)S(C)(=O)=O)cc2)cc1)S(C)(=O)=O` was run?
Its TGI is > 100 µM.

What about the TGI (SNB-19 CNS) of the same compound?
The TGI was > 100 µM.

And the TGI (OVCAR-5 ovarian)?
The TGI was > 100 µM.

What about the TGI (KM20L2 colon) of the same compound?
Its TGI is > 100 µM.

And the TGI (SNB-78 CNS)?
The TGI was > 100 µM.

And the TGI (CAKI-1 renal)?
Its TGI is > 100 µM.

And the TGI (UACC-257 melanoma)?
Its TGI is > 100 µM.

What about the TGI (DLD-1 colon) of the same compound?
Its TGI is > 100 µM.

With `C[N+](C)(C)CC(=O)N/N=C(/C(=O)Nc1ccc(Br)cc1)C1C(=O)NC(=O)NC1=O` as the compound, how does the TGI (LXFL 529 NSCLC) read?
The TGI was > 100 µM.

What about the TGI (SNB-19 CNS) of the same compound?
Its TGI is > 100 µM.

And the TGI (HCT-15 colon)?
The TGI was > 100 µM.

And the TGI (OVCAR-5 ovarian)?
The TGI was > 100 µM.

What about the TGI (KM20L2 colon) of the same compound?
Its TGI is > 100 µM.

And the TGI (SNB-78 CNS)?
The TGI was > 100 µM.

What about the TGI (CAKI-1 renal) of the same compound?
Its TGI is > 100 µM.

And the TGI (UACC-257 melanoma)?
The TGI was > 100 µM.

And the TGI (DLD-1 colon)?
The TGI was > 100 µM.

Which TGI (LXFL 529 NSCLC) does the source give for `CN(C)C(=N/O)/C(=N\O)N(C)C` here?
Its TGI is > 100 µM.

What about the TGI (SNB-19 CNS) of the same compound?
Its TGI is > 100 µM.

What about the TGI (HCT-15 colon) of the same compound?
Its TGI is > 100 µM.

And the TGI (OVCAR-5 ovarian)?
Its TGI is > 100 µM.

And the TGI (KM20L2 colon)?
The TGI was > 100 µM.

What about the TGI (SNB-78 CNS) of the same compound?
The TGI was > 100 µM.

And the TGI (CAKI-1 renal)?
The TGI was > 100 µM.

And the TGI (UACC-257 melanoma)?
Its TGI is > 100 µM.

What about the TGI (DLD-1 colon) of the same compound?
Its TGI is > 100 µM.
